IC50 data for three compounds are collected here from EP3034610A1, “NOVEL TERPENOID COMPOUND AND METHOD FOR PRODUCING SAME” (The Kitasato Institute, priority 2013, dated 2015).

What all share (format): cell-based
What all share (details): 72 h treatment, OD 540 nm, tested 5-100 µg/mL

The subject of assay [1] is Mycobacterium smegmatis. As to the kind of experiment: Cytotoxicity, MTT assay (viability), Mycobacterium smegmatis.
The subject of assay [2] is Jurkat (T-cell lymphoblastic leukemia). As to the kind of experiment: Cytotoxicity, MTT assay (viability), Jurkat.
For assay [3], the system named is SKOV (ovarian cancer). As to the kind of experiment: Cytotoxicity, MTT assay (viability), SKOV.

Take `C=C(CCC=C(C)C)[C@@H]1CC[C@@]2(C)CCCC(C)=C2C1` [clavulatriene A]: the values for the IC50 entry in assay [1], in assay [2] and in assay [3] were “not active”, “IC50 = 5.63 µg/ml” and “not active”, respectively.
Turning to tetramethylhexadecahydropyrenol, the figures for the IC50 entry in assay [1], in assay [2] and in assay [3] were “IC50 = 49.78 µg/ml”, “IC50 = 29. 35 µ g/ml µg/ml” and “IC50 = 35.38 µ g/ml”, respectively.
As to trimethyl-methylenehexadecahydropyrene, the IC50 result is “IC50 = 50.08 µg/ml” in assay [1], “not active” in assay [2] and “not active” in assay [3].
